Assay results: patent US8163909B2, “Substituted hydroxyethyl amine compounds as beta-secretase modulators and methods of use” (Amgen Inc., priority 2007, dated 2012)
Read-outs that look alike come from different tables or passages of the source.

Assays:
CYP3A = CYP3A (Homo sapiens, UniProt P08684); conditions: CYP3A4 inhibition; for IC50: read-out: 3A4 IC50
[1] = target: Beta Secretase enzyme (BACE) (Homo sapiens, UniProt P56817); assay: In vitro enzymatic BACE FRET (fluorescence resonance energy transfer) assay; assay type: biochemical;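 further: fluorescence read after 1 h with 50 nM quenched peptide substrate spanning the BACE cleavage site, in pH 4.2 acetate buffer containing 10% DMSO and nonionic detergent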
[2] = test system: Aβ40 in conditioned medium of cells stably expressing Amyloid Precursor Protein (APP); assay: In vitro BACE cell-based assay (Aβ40 in conditioned medium, sandwich ELISA);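 further: compounds added as a dilution series, secreted peptide quantified by europium time-resolved fluorescence readout, potency fitted from percent of control versus compound concentration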
[3] = Microsomal stability assay, rat liver microsomes; conditions: rat liver microsomes;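 further: rat liver microsomes (0.25 mg/mL) with about 1 µM compound plus 1 mM NADPH, pH 7.4, 37 °C for 30 min, parent left measured by LC-MS/MS against 0 min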
[4] = Microsomal stability assay, human liver microsomes; conditions: human liver microsomes;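 further: pooled human liver microsomes at 0.25 mg/mL with 1 µM compound and NADPH at 37 °C, pH 7.4, for 30 min, unchanged parent quantified by LC-MS/MS against the 0 min sample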
CYP2D6 = CYP2D6 (Homo sapiens, UniProt P10635); assay: CYP2D6 inhibition assay (bufuralol, pooled human liver microsomes)
[5] = human, microsomes, 1 μM, pH 7.4
Abeta peptide = assay: In vivo inhibition of beta-secretase (reduction of Abeta peptide in brain and cerebrospinal fluid); parameters: species or system rat; conditions: po; rat cerebrospinal fluid, orally administered at 30 mg/kg dose, measured after 4 hours; read-out: percent reduction of abeta peptide in the cerebrospinal fluid of the rat;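 further: abeta peptide quantified by sandwich ELISA with electrochemiluminescence readout in rat brain supernatant or CSF, relative to vehicle-dosed control animals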
[6] = rat, microsomes, 1 μM, pH 7.4
CYP3A4 (CYP3A) = CYP3A4 (CYP3A) (Homo sapiens, UniProt P08684); assay: in vitro; conditions: microsomes, pH 7.4
[7] = read-out: 2D6 IC50, CYP2D6 inhibition

Chain of Beta Secretase enzyme (BACE) (P56817 46-501): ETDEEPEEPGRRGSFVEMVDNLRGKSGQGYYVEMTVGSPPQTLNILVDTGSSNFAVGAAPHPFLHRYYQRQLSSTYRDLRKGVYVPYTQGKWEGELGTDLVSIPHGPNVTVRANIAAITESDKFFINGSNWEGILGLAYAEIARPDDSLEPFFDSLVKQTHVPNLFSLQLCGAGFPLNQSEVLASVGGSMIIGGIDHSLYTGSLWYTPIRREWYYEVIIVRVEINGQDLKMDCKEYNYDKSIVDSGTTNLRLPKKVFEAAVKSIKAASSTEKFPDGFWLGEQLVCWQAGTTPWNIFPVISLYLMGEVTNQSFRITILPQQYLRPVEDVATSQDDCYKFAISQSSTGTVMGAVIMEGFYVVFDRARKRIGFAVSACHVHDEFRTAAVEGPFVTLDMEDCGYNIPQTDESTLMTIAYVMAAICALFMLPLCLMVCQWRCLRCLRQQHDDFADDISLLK
Chain of CYP3A (P08684 2-503): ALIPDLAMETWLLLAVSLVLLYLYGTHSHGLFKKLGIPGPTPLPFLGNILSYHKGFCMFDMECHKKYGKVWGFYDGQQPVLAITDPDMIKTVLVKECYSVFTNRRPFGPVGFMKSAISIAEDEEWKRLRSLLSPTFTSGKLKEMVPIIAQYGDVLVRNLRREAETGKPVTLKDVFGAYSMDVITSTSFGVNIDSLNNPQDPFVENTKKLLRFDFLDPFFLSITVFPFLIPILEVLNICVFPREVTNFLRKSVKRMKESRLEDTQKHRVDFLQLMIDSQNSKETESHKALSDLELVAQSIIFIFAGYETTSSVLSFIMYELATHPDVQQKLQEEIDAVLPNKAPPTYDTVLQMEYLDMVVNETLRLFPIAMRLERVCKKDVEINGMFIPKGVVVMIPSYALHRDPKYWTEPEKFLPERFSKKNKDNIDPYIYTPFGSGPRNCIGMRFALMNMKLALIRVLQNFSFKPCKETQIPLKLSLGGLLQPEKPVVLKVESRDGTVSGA
Chain of CYP2D6 (P10635 whole entry): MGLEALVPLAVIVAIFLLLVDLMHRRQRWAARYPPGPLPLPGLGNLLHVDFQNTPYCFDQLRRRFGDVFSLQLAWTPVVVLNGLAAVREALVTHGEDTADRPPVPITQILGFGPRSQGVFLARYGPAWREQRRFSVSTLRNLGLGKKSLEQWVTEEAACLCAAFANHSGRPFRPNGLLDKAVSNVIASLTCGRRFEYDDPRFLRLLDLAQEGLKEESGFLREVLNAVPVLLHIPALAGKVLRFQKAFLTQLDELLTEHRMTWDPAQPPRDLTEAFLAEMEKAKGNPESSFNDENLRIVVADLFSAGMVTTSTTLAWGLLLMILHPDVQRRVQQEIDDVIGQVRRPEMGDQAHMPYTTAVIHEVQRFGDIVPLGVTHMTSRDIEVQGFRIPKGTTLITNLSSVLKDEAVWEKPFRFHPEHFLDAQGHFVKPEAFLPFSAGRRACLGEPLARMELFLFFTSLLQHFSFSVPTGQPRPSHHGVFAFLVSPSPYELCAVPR
Chain of CYP3A4 (CYP3A) (P08684 2-503): as the sequence (P08684 2-503) above

SMILES | IC50 (CYP3A) | RLM [3] | HLM [4] | IC50 (CYP2D6; [7]) | HLM [5] | RLM [6] | other results
CC(=O)N[C@@H](Cc1cc(F)cc(-c2nccs2)c1)[C@H](O)CN[C@H]1CC2(CCC2)Oc2ncc(CC(C)(C)C)cc21 [Example 435, N-((2S,3R)-4-((S)-2,2-spirocyclobutyl-6-neopentyl-3,4-dihydro-2H-pyrano[2,3-b]pyridin-4-ylamino)-1-(3-fluoro-5-(thiazol-2-yl)phenyl)-3-hydroxybutan-2-yl)acetamide] | 1400 nM | 197 µL/min/mg | 125 µL/min/mg | 0.3 µM |  |  | IC50 ([1]; read-out: BACE1 FRET assay (IC50)): 6 nM; IC50 ([2]; HEK cells, read-out: HEK cell assay (IC50)): 39 nM
CC(=O)N[C@@H](Cc1ccc(F)c(-c2cscn2)c1)[C@H](O)CN[C@H]1CC2(CCC2)Oc2ccc(CC(C)(C)C)cc21 [Example 436, N-((2S,3R)-4-((S)-2,2-spirocyclobutyl-6-neopentyl-3,4-dihydro-2H-chromen-4-ylamino)-1-(4-fluoro-3-(thiazol-4-yl)phenyl)-3-hydroxybutan-2-yl)acetamide] | 200 nM | 78 µL/min/mg | 135 µL/min/mg | 2.2 µM |  |  | IC50 ([1]; BACE enzyme assay IC50, read-out: BACE1 FRET assay): 5 nM; IC50 ([2]; HEK cell-based assay IC50, read-out: HEK cell assay): 24 nM
COCC(=O)N[C@@H](Cc1ccc(F)cc1)[C@H](O)CN[C@H]1CC2(CCC2)Oc2c1cc(CC(C)(C)C)nc2-c1c[nH]cn1 [Example 529] |  |  |  |  | 37 µL/min/mg | 40 µL/min/mg | IC50 ([1]; BACE enzyme assay, read-out: BACE1 FRET assay): 23 nM; inhibition in vivo at 30 mg/kg (Abeta peptide): 10 to 80%; IC50 ([2]; Homo sapiens, HEK293, HEK cells, read-out: HEK cell assay): 12 nM; IC50 (CYP3A4 (CYP3A)): 100 nM; IC50 (CYP2D6; 2D6 IC50 (uM), CYP enzyme inhibition): 0.7 µM
COCC(=O)N[C@@H](Cc1cc(F)cc(F)c1)[C@H](O)CN[C@H]1CC2(CCC2)Oc2c1cc([C@H]1CC1(C)C)nc2-c1ccncc1 [compound 703] |  |  |  |  | 32 µL/min/mg | 118 µL/min/mg | 3A4 IC50 (CYP3A): 200 nM
C#Cc1cccc(C[C@H](NC(=O)COC)[C@H](O)CN[C@H]2C[C@]3(CCOC3)Oc3ncc(CC(C)(C)C)cc32)c1 [compound 868] |  |  |  |  | 14 µL/min/mg | 86 µL/min/mg | 
